Marks after values point to notes of the source that are not given here.
How the values were obtained:
Format in all cases: cell-based
CB2 [1] = target: T1, CB2 (Homo sapiens, UniProt P34972, Q63R); test: β-arrestin 2 translocation real-time BRET assay, wild-type CB2; conditions: for pEC50, β-arrestin 2 translocation to CB2: HEK 293 cells
CB2 [2] = target: T1, CB2; test: β-arrestin 1 translocation real-time BRET assay; conditions: for EC50: pEC50, β-arrestin 1 translocation to CB2, HEK 293 cells; for pEC50, β-arrestin 1 translocation to CB2: HEK 293 cells
CB2 [3] = target: T1, CB2; test: β-arrestin 1 translocation real-time BRET assay; conditions: HEK 293 cells
CB2 [4] = target: T1, CB2; test: β-arrestin 2 translocation real-time BRET assay, wild-type CB2; conditions: for Span, β-arrestin 2 translocation to CB2: HEK 293 cells

T1 sequence (P34972 whole entry Q63R): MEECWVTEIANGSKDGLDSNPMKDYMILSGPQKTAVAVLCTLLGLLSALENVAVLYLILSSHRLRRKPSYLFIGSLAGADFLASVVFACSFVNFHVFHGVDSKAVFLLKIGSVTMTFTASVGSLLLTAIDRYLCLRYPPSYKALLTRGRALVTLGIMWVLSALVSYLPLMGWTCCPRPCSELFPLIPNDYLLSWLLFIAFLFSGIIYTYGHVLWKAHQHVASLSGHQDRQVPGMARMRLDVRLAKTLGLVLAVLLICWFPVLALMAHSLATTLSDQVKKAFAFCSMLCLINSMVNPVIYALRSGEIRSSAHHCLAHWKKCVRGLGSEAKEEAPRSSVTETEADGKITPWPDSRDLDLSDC

Row | SMILES | Span, β-arrestin 1 translocation to CB2 (CB2 [3]; coexpression of GRK1) | Span, β-arrestin 1 translocation to CB2 (CB2 [3]; coexpression of GRK2) | Span, β-arrestin 1 translocation to CB2 (CB2 [3]; coexpression of GRK3) | Span, β-arrestin 1 translocation to CB2 (CB2 [3]; coexpression of GRK4) | Span, β-arrestin 1 translocation to CB2 (CB2 [3]; coexpression of GRK5) | Span, β-arrestin 1 translocation to CB2 (CB2 [3]; coexpression of GRK6) | Span, β-arrestin 1 translocation to CB2 (CB2 [3]; mock (no GRK)) | Span, β-arrestin 2 translocation to CB2 (CB2 [4]; coexpression of GRK1, Table 2) | Span, β-arrestin 2 translocation to CB2 (CB2 [4]; coexpression of GRK2, Table 2) | Span, β-arrestin 2 translocation to CB2 (CB2 [4]; coexpression of GRK3, Table 2) | Span, β-arrestin 2 translocation to CB2 (CB2 [4]; coexpression of GRK4, Table 2) | Span, β-arrestin 2 translocation to CB2 (CB2 [4]; coexpression of GRK5, Table 2) | Span, β-arrestin 2 translocation to CB2 (CB2 [4]; coexpression of GRK6, Table 2) | Span, β-arrestin 2 translocation to CB2 (CB2 [4]; mock (no GRK), Table 2) | other results
1 | CCCCC/C=C\C/C=C\C/C=C\C/C=C\CCCC(=O)OC(CO)CO [2-AG, 2-Arachidonoylglycerol] | 83.57 (2.82) ^* ΔBRET.s | 71.73 (3.39) ^* ΔBRET.s | 68.57 (2.99) ^* ΔBRET.s | 62.00 (2.72) ΔBRET.s | 65.96 (1.69) ^* ΔBRET.s | 74.27 (4.00) ^* ΔBRET.s | 56.14 (1.52) ΔBRET.s | 198.6 (8.08) ΔBRET.s | 165.5 (10.92) ^* ΔBRET.s | 164.7 (9.83) ^* ΔBRET.s | 191.3 (6.31) ΔBRET.s | 157.1 (4.07) ^* ΔBRET.s | 158.6 (6.39) ^* ΔBRET.s | 204.9 (14.67) ΔBRET.s | EC50 (CB2 [1]; pEC50, β-arrestin 2 translocation to CB2, HEK 293 cells, mock (no GRK), Table 2): 2.29 µM; EC50 (CB2 [2]; coexpression of GRK1): 3.24 µM; EC50 (CB2 [2]; coexpression of GRK2): 2.29 µM; EC50 (CB2 [2]; coexpression of GRK3): 2 µM; EC50 (CB2 [2]; coexpression of GRK4): 2.88 µM; EC50 (CB2 [2]; coexpression of GRK5): 3.63 µM; EC50 (CB2 [2]; coexpression of GRK6): 3.31 µM; EC50 (CB2 [2]; mock (no GRK)): 3.55 µM; lowering of efficacy of β-arrestin 2 translocation by GRK coexpression (CB2 [4]; coexpression of GRK2, GRK3 and GRK5 versus mock): 10–20%
2 | COC(=O)[C@@H](NC(=O)c1nn(Cc2ccc(F)cc2)c2ccccc12)C(C)C [AMB-FUBINACA] | 47.12 (3.44) ^* ΔBRET.s | 45.12 (2.90) ^* ΔBRET.s | 46.69 (1.39) ^* ΔBRET.s | 35.06 (2.32) ΔBRET.s | 38.17 (1.55) ΔBRET.s | 44.72 (3.21) ^* ΔBRET.s | 29.34 (2.43) ΔBRET.s | 134.2 (11.15) ΔBRET.s | 123.2 (9.45) ΔBRET.s | 119.0 (9.10) ΔBRET.s | 126.6 (9.03) ΔBRET.s | 114.6 (5.98) ΔBRET.s | 125.8 (10.37) ΔBRET.s | 123.9 (8.36) ΔBRET.s | pEC50, β-arrestin 2 translocation to CB2 (CB2 [1]; coexpression of GRK1, Table 2): 8.03 (0.06); pEC50, β-arrestin 2 translocation to CB2 (CB2 [1]; coexpression of GRK2, Table 2): 8.28 (0.05) ^*; pEC50, β-arrestin 2 translocation to CB2 (CB2 [1]; coexpression of GRK3, Table 2): 8.17 (0.11); pEC50, β-arrestin 2 translocation to CB2 (CB2 [1]; coexpression of GRK4, Table 2): 8.13 (0.03); pEC50, β-arrestin 2 translocation to CB2 (CB2 [1]; coexpression of GRK5, Table 2): 8.07 (0.07); pEC50, β-arrestin 2 translocation to CB2 (CB2 [1]; coexpression of GRK6, Table 2): 8.12 (0.04); pEC50, β-arrestin 2 translocation to CB2 (CB2 [1]; mock (no GRK), Table 2): 8.15 (0.06); β-arrestin 2 translocation to CB2 (in words) (CB2 [1]; absence of exogenous GRKs): submaximal translocation; pEC50, β-arrestin 1 translocation to CB2 (CB2 [2]; coexpression of GRK1): 7.97 (0.13); pEC50, β-arrestin 1 translocation to CB2 (CB2 [2]; coexpression of GRK2): 8.16 (0.09); pEC50, β-arrestin 1 translocation to CB2 (CB2 [2]; coexpression of GRK3): 8.26 (0.07) ^*; pEC50, β-arrestin 1 translocation to CB2 (CB2 [2]; coexpression of GRK4): 7.98 (0.18); pEC50, β-arrestin 1 translocation to CB2 (CB2 [2]; coexpression of GRK5): 7.97 (0.11); pEC50, β-arrestin 1 translocation to CB2 (CB2 [2]; coexpression of GRK6): 8.01 (0.18); pEC50, β-arrestin 1 translocation to CB2 (CB2 [2]; mock (no GRK)): 7.94 (0.10); β-arrestin 1 translocation to CB2 (in words) (CB2 [2]; absence of exogenous GRKs): submaximal translocation

Reference: paper PMC12591375 (British journal of pharmacology, 2022)
